The molecules below were run on Heterodera schachtii (assay: Heterodera schachtii (sugar beet cyst nematode), nematicide, contact activity: juvenile paralysis in 16-well assay plates). Conditions: 200 ppm, approx. 500 juveniles per well, 24 hours incubation at 25° C. in darkness, read-out: nematode immobilization compared to the untreated control.
Format: in vivo
Protocol: Heterodera schachtii (Sugar Beet Cyst Nematode), Nematicide, Contact Activity
The tested application rate of each compound was 200 ppm. All solutions were brought to a concentration of 400 ppm, respectively, as they were subsequently diluted by adding the equivalent amount of water containing juvenile nematodes. After preparation of the suspensions, 1 ml of each suspension and concentration was transferred to 16-well assay plates with a total of three replicates per treatment. Approximately 500 juveniles of Heterodera schachtii were added in 1 ml of water to each well. Nematodes in water served as controls. The plates were placed in a dark box and stored at room temperature. Nematode paralysis was determined after 24 hours incubation at 25° C. in darkness.

Row | Structure (SMILES) | pest or weed control at 200 ppm
1 | CC1=C(C(=O)N[C@H]2CC[C@H]2c2ccc(Cl)cc2Cl)SCCO1 [Compound 61.86, N-[(1S,2S)-2-(2,4-dichlorophenyl)cyclobutyl]-6-methyl-2,3-dihydro-1,4-oxathiine-5-carboxamide] | > 75%
2 | O=C(N[C@H]1CC[C@H]1c1ccc(Cl)cc1Cl)c1ccsc1Br [Compound 61.87, 2-bromo-N-[(1S,2S)-2-(2,4-dichlorophenyl)cyclobutyl]thiophene-3-carboxamide] | > 75%
3 | O=C(N[C@H]1CC[C@H]1c1ccc(Cl)cc1Cl)c1cscn1 [Compound 61.88, N-[(1S,2S)-2-(2,4-dichlorophenyl)cyclobutyl]-1,3-thiazole-4-carboxamide] | > 75%
4 | O=C(N[C@H]1CC[C@H]1c1ccc(Cl)cc1Cl)c1ccccc1Cl [Compound 61.89, 2-chloro-N-[(1S,2S)-2-(2,4-dichlorophenyl)cyclobutyl]benzamide] | > 75%
5 | O=C(N[C@H]1CC[C@H]1c1ccc(Cl)cc1Cl)c1ncccn1 [Compound 61.90, N-[(1S,2S)-2-(2,4-dichlorophenyl)cyclobutyl]pyrimidine-2-carboxamide] | > 75%
6 | N#Cc1ccccc1C(=O)N[C@H]1CC[C@H]1c1ccc(Cl)cc1Cl [Compound 61.91, 2-cyano-N-[(1S,2S)-2-(2,4-dichlorophenyl)cyclobutyl]benzamide] | > 75%
7 | Cc1cccnc1C(=O)N[C@H]1CC[C@H]1c1ccc(Cl)cc1Cl [Compound 61.92, N-[(1S,2S)-2-(2,4-dichlorophenyl)cyclobutyl]-3-methylpyridine-2-carboxamide] | > 75%
8 | O=C(N[C@H]1CC[C@H]1c1ccc(Cl)cc1Cl)c1ccsc1I [Compound 61.96, N-[(1S,2S)-2-(2,4-dichlorophenyl)cyclobutyl]-2-iodothiophene-3-carboxamide] | > 75%
9 | O=C(N[C@H]1CC[C@H]1c1ccc(Cl)cc1Cl)c1ccsc1C(F)(F)F [Compound 61.97, N-[(1S,2S)-2-(2,4-dichlorophenyl)cyclobutyl]-2-(trifluoromethyl)thiophene-3-carboxamide] | > 75%
10 | O=C(N[C@H]1CC[C@H]1c1ccc(Cl)cc1Cl)c1ncsc1Br [Compound 61.98, 5-bromo-N-[(1S,2S)-2-(2,4-dichlorophenyl)cyclobutyl]-1,3-thiazole-4-carboxamide] | > 75%
11 | Cc1cccnc1C(=O)N[C@H]1CC[C@H]1c1ccc(F)cc1F [Compound 61.108, N-[(1S,2S)-2-(2,4-difluorophenyl)cyclobutyl]-3-methylpyridine-2-carboxamide] | > 75%
12 | Cc1ccccc1C(=O)N[C@H]1CC[C@H]1c1ccc(F)cc1F [Compound 61.109, N-[(1S,2S)-2-(2,4-difluorophenyl)cyclobutyl]-2-methylbenzamide] | > 75%
13 | O=C(N[C@H]1CC[C@H]1c1ccc(F)cc1F)c1ncccn1 [Compound 61.110, N-[(1S,2S)-2-(2,4-difluorophenyl)cyclobutyl]pyrimidine-2-carboxamide] | > 75%
14 | O=C(N[C@H]1CC[C@H]1c1ccc(F)cc1F)c1ccccc1Cl [Compound 61.113, 2-chloro-N-[(1S,2S)-2-(2,4-difluorophenyl)cyclobutyl]benzamide] | > 75%
15 | O=C(N[C@H]1CC[C@H]1c1ccc(F)cc1F)c1cnccc1C(F)(F)F [Compound 61.114, N-[(1S,2S)-2-(2,4-difluorophenyl)cyclobutyl]-4-(trifluoromethyl)pyridine-3-carboxamide] | > 75%
16 | O=C(N[C@H]1CC[C@H]1c1ccc(F)cc1F)c1ccccc1Br [Compound 61.116, 2-bromo-N-[(1S,2S)-2-(2,4-difluorophenyl)cyclobutyl]benzamide] | > 75%
17 | O=C(N[C@H]1CC[C@H]1c1ccc(F)cc1F)c1c(F)cccc1Cl [Compound 61.117, 2-chloro-N-[(1S,2S)-2-(2,4-difluorophenyl)cyclobutyl]-6-fluorobenzamide] | > 75%
18 | Cc1cccc(F)c1C(=O)N[C@H]1CC[C@H]1c1ccc(F)cc1F [Compound 61.118, N-[(1S,2S)-2-(2,4-difluorophenyl)cyclobutyl]-2-fluoro-6-methylbenzamide] | > 75%
19 | Cc1nccnc1C(=O)N[C@H]1CC[C@H]1c1ccc(F)cc1F [Compound 61.119, N-[(1S,2S)-2-(2,4-difluorophenyl)cyclobutyl]-3-methylpyrazine-2-carboxamide] | > 75%
20 | O=C(N[C@H]1CC[C@H]1c1ccc(F)cc1F)c1ccccc1F [Compound 61.121, N-[(1S,2S)-2-(2,4-difluorophenyl)cyclobutyl]-2-fluorobenzamide] | > 75%
21 | O=C(N[C@H]1CC[C@H]1c1ccc(F)cc1F)c1cncnc1C(F)(F)F [Compound 61.122, N-[(1S,2S)-2-(2,4-difluorophenyl)cyclobutyl]-4-(trifluoromethyl)pyrimidine-5-carboxamide] | > 75%
22 | O=C(N[C@H]1CC[C@H]1c1ccc(F)cc1F)c1ncccc1F [Compound 61.124, N-[(1S,2S)-2-(2,4-difluorophenyl)cyclobutyl]-3-fluoropyridine-2-carboxamide] | > 75%
23 | O=C(N[C@H]1CC[C@H]1c1ccc(F)cc1F)c1ccccc1I [Compound 61.125, N-[(1S,2S)-2-(2,4-difluorophenyl)cyclobutyl]-2-iodobenzamide] | > 75%
24 | Cn1cccc1C(=O)N[C@H]1CC[C@H]1c1ccc(F)cc1F [Compound 61.126, N-[(1S,2S)-2-(2,4-difluorophenyl)cyclobutyl]-1-methylpyrrole-2-carboxamide] | > 75%
25 | Cn1cc(C(=O)N[C@H]2CC[C@H]2c2ccc(F)cc2F)c(C(F)F)n1 [Compound 61.127, 3-(difluoromethyl)-N-[(1S,2S)-2-(2,4-difluorophenyl)cyclobutyl]-1-methylpyrazole-4-carboxamide] | > 75%
26 | O=C(N[C@H]1CC[C@H]1c1ccc(F)cc1F)c1sccc1Cl [Compound 61.129, 3-chloro-N-[(1S,2S)-2-(2,4-difluorophenyl)cyclobutyl]thiophene-2-carboxamide] | > 75%
27 | O=C(N[C@H]1CC[C@H]1c1ccc(F)cc1F)c1c(F)cccc1C(F)(F)F [Compound 61.131, N-[(1S,2S)-2-(2,4-difluorophenyl)cyclobutyl]-2-fluoro-6-(trifluoromethyl)benzamide] | > 75%
28 | O=C(N[C@H]1CC[C@H]1c1ccc(F)cc1F)c1cccnc1Cl [Compound 61.133, 2-chloro-N-[(1S,2S)-2-(2,4-difluorophenyl)cyclobutyl]pyridine-3-carboxamide] | > 75%
29 | O=C(N[C@H]1CC[C@H]1c1ccc(F)cc1F)c1ncsc1Br [Compound 61.136, 5-bromo-N-[(1S,2S)-2-(2,4-difluorophenyl)cyclobutyl]-1,3-thiazole-4-carboxamide] | > 75%

Same assay, conditions: 24 h, read-out: nematode immobilization compared to the untreated control

Row | Structure (SMILES) | pest or weed control at 200 ppm
30 | Cc1nc(C(F)(F)F)c(C(=O)N[C@H]2CC[C@H]2c2ccc(Cl)cc2Cl)s1 [Compound 61.93, N-[(1S,2S)-2-(2,4-dichlorophenyl)cyclobutyl]-2-methyl-4-(trifluoromethyl)-1,3-thiazole-5-carboxamide] | > 75%
